Here are results for twelve compounds from patent US10975077B2 (Novira Therapeutics, Inc., priority 2016, dated 2021).

In general, pEC50 refers to −log10 of the EC50, conventionally taken in molar units.

pEC50: −log10 of the molar value.

For this test, the system named is HBV (encapsidated HBV DNA, HepG2.2.15 cells). The test is described as follows: HBV replication inhibition assay, BDNA assay in HepG2.2.15 cells. The class given is cell-based. The settings on record: Hepatitis B virus, HepG2.2.15, Activity in BDNA-assay. The procedure, abridged: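 Encapsidated HBV DNA in DNase-treated, proteinase K-lysed supernatant was measured by branched DNA after 6 days' compound exposure, refreshed on day 3, of HepG2.2.15 cells in 0.5% DMSO. Signals normalized to DMSO-treated wells; EC50 from nonlinear regression of inhibition against log concentration.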
Regarding `CN1CC2(CC(O)C2)Cn2nc3c(c2C1=O)CN(C(=O)Nc1ccc(F)c(Cl)c1)CC3` (stereo not drawn) [Compound 132, N-(3-chloro-4-fluorophenyl)-3-hydroxy-10′-methyl-11′-oxo-1′,3′,4′,9′,10′,11′-hexahydro-2′H,7′H-spiro[cyclobutane-1,8′-pyrido[4′,3′:3,4]pyrazolo [1,5-a][1,4]diazepine]-2′-carboxamide], the pEC50 was 7.00 to 9.00. The value for `C[C@@H]1Cc2nn3c(c2CN1C(=O)Nc1ccc(F)c(C#N)c1)C(=O)N(C)C[C@@H](COCC(F)F)C3` [Compound 134_D1, (3R,8R)—N-(3-Cyano-4-fluorophenyl)-8-((2,2-difluoroethoxy)methyl)-3,10-dimethyl-11-oxo-1,3,4,7,8,9,10,11-octahydro-2H-pyrido[4′,3′:3,4]pyrazolo[1,5-a][1,4]diazepine-2-carboxamide] was 7.00 to 9.00; that for `C[C@@H]1Cc2nn3c(c2CN1C(=O)Nc1ccc(F)c(C(F)(F)F)c1)C(=O)N(C)C[C@@H](COCC(F)F)C3` [Compound 135_D1, (3R,8R)-8-((2,2-difluoroethoxy)methyl)-N-(4-fluoro-3-(trifluoromethyl)phenyl)-3,10-dimethyl-11-oxo-1,3,4,7,8,9,10,11-octahydro-2H-pyrido[4′,3′:3,4]pyrazolo[1,5-a][1,4]diazepine-2-carboxamide] was 7.00 to 9.00; that for `C[C@@H]1Cc2nn3c(c2CN1C(=O)Nc1ccc(F)c(C(F)(F)F)c1)C(=O)N(C)C[C@H](COCC(F)F)C3` [Compound 135_D2, (3R,8S)-8-((2,2-difluoroethoxy)methyl)-N-(4-fluoro-3-(trifluoromethyl)phenyl)-3,10-dimethyl-11-oxo-1,3,4,7,8,9,10,11-octahydro-2H-pyrido[4′,3′:3,4]pyrazolo[1,5-a][1,4]diazepine-2-carboxamide] was 7.00 to 9.00. On to `C[C@@H]1Cc2nn3c(c2CN1C(=O)Nc1ccc(F)c(C#N)c1)C(=O)N(C)CC(F)(F)C3` [Compound 136, (R)—N-(3-cyano-4-fluorophenyl)-8,8-difluoro-3,10-dimethyl-11-oxo-1,3,4,7,8,9,10,11-octahydro-2H-pyrido[4′,3′:3,4]pyrazolo[1,5-a][1,4]diazepine-2-carboxamide], for which the pEC50 was 7.00 to 9.00.

For `C[C@@H]1Cc2nn3c(c2CN1C(=O)Nc1ccc(F)c(C#N)c1)C(=O)N(C)CC(C)(C)C3` [Compound 139, (R)-N-(3-cyano-4-fluorophenyl)-3,8,8,10-tetramethyl-11-oxo-1,3,4,7,8,9,10,11-octahydro-2H-pyrido[4′,3′:3,4]pyrazolo[1,5-a][1,4]diazepine-2-carboxamide], the pEC50 is 7.00 to 9.00. The value for `C[C@@H]1Cc2nn3c(c2CN1C(=O)Nc1ccc(F)c(C(F)(F)F)c1)C(=O)N(C)CC(C)(C)C3` [Compound 140, (R)-N-(4-Fluoro-3-(trifluoromethyl)phenyl)-3,8,8,10-tetramethyl-11-oxo-1,3,4,7,8,9,10,11-octahydro-2H-pyrido[4′,3′:3,4]pyrazolo[1,5-a][1,4]diazepine-2-carboxamide] was 7.00 to 9.00; that for `C[C@@H]1Cc2nn3c(c2CN1C(=O)Nc1ccc(F)c(C#N)c1)C(=O)N(C)CC1(CC(O)C1)C3` (stereo partly drawn) [Compound 141, (R)-N-(3-Cyano-4-fluorophenyl)-3-hydroxy-3′,10′-dimethyl-11′-oxo-1′,3′,4′,9′,10′,11′-hexahydro-2′H,7′H-spiro[cyclobutane-1,8′-pyrido[4′,3′:3,4]pyrazolo[1,5-a][1,4]diazepine]-2′-carboxamide] was 7.00 to 9.00; that for `C[C@@H]1Cc2nn3c(c2CN1C(=O)Nc1ccc(F)c(C#N)c1)C(=O)N(C)CC1(CC(F)C1)C3` (stereo partly drawn) [Compound 142, (R)-N-(3-Cyano-4-fluorophenyl)-3-fluoro-3′,10′-dimethyl-11′-oxo-1′,3′,4′,9′,10′,11′-hexahydro-2′H,7′H-spiro[cyclobutane-1,8′-pyrido[4′,3′:3,4]pyrazolo[1,5-a][1,4]diazepine]-2′-carboxamide] was 7.00 to 9.00.

Take `C[C@@H]1Cc2nn3c(c2CN1C(=O)Nc1ccc(F)c(C#N)c1)C(=O)N(C)CC1(C3)CC(F)(F)C1` [Compound 143, (R)-N-(3-Cyano-4-fluorophenyl)-3,3-difluoro-3′,10′-dimethyl-11′-oxo-1′,3′,4′,9′,10′,11′-hexahydro-2′H,7′H-spiro[cyclobutane-1,8′-pyrido[4′,3′:3,4]pyrazolo[1,5-a][1,4]diazepine]-2′-carboxamide]: the pEC50 is 7.00 to 9.00. Turning to `C[C@@H]1Cc2nn3c(c2CN1C(=O)Nc1ccc(F)c(C#N)c1)C(=O)N(C)[C@H](CF)C3` [Compound 149, (3R,8S)-N-(3-cyano-4-fluorophenyl)-8-(fluoromethyl)-3,9-dimethyl-10-oxo-3,4,7,8,9,10-hexahydropyrido[4′,3′:3,4]pyrazolo[1,5-a]pyrazine-2(1H)-carboxamide], the pEC50 was 7.00 to 9.00.

With `C[C@@H]1Cc2nn3c(c2CN1C(=O)Nc1ccc(F)c(C#N)c1)C(=O)N(C)[C@H](COCC(F)F)C3` [Compound 150, (3R,8S)-N-(3-cyano-4-fluorophenyl)-8-((2,2-difluoroethoxy)methyl)-3,9-dimethyl-10-oxo-3,4,7,8,9,10-hexahydropyrido[4′,3′:3,4]pyrazolo[1,5-a]pyrazine-2(1H)-carboxamide], the pEC50 is 7.00 to 9.00.
